Results: patent US10105357B2, “Indication of antibiotic drugs for preparation of cancer inhibition pharmaceutical composition” (LAUNX BIOMEDICAL CO., LTD., priority 2014, dated 2018)
Like-named read-outs stand apart in the source and are kept apart here.

Columns and labels:
Type in all cases: cell-based, human
AsPC-1 = assay: Cell viability analysis, pancreatic cancer AsPC-1
[1] = test system: MKN-45 (Gastric Adenocarcinoma); assay: Cell viability analysis, gastric cancer MKN-45; conditions: for viability at 10 µM: Homo sapiens, MKN-45, 72 h
[2] = test system: MCF7 (Mammary Gland, Adenocarcinoma); assay: Cell viability analysis, breast cancer MCF7; conditions: for viability at 10 µM: Homo sapiens, MCF7, 72 h
[3] = test system: AGS (Gastric Adenocarcinoma); assay: Cell viability analysis, gastric cancer AGS; conditions: for viability at 10 µM: Homo sapiens, 72 h
[4] = test system: A549 (Lung Adenocarcinoma); assay: Cell viability analysis, lung cancer A549; conditions: for viability at 10 µM: Homo sapiens, A549, 72 h
[5] = test system: SAS (Tongue squamous cell carcinoma); assay: Cell viability analysis, tongue cancer SAS
[6] = test system: HepG2 (Hepatocellular Carcinoma); assay: Cell viability analysis, hepatic cancer HepG2; conditions: for viability at 10 µM: Homo sapiens, HepG2, 72 h
[7] = test system: A375 (Amelanotic Melanoma); assay: Cell viability analysis, skin cancer A375; conditions: for viability at 10 µM: Homo sapiens, A-375, 72 h
BxPC-3 = assay: Cell viability analysis, pancreatic cancer BxPC-3
T24 = assay: Cell viability analysis, bladder cancer T24
NIH: OVCAR-3 = assay: Cell viability analysis, ovarian cancer NIH: OVCAR-3
[8] = test system: HeLa (Cervix Adenocarcinoma); assay: Cell viability analysis, cervical cancer HeLa; conditions: for viability at 10 µM: Homo sapiens, HeLa, 72 h
[9] = test system: HI650 (Lung Adenocarcinoma); assay: Cell viability analysis, lung cancer HI650; conditions: for viability at 10 µM: Homo sapiens, NCI-H1650, 72 h
[10] = test system: PC3 (p53−) (Prostate Adenocarcinoma); assay: Cell viability analysis, prostate cancer PC3
[11] = test system: C-33A (Cervical carcinoma); assay: Cell viability analysis, cervical cancer C-33A
[12] = test system: MDA-MB-231 (Mammary Gland, Adenocarcinoma); assay: Cell viability analysis, breast cancer MDA-MB-231
[13] = test system: BCC (basal cell carcinoma); assay: Cell viability analysis, skin cancer BCC
U-2OS = assay: Cell viability analysis, osteosarcoma U-2OS
[14] = test system: TSGH-8301 (Urinary Bladder Carcinoma); assay: Cell viability analysis, bladder cancer TSGH-8301; conditions: for viability at 10 µM: Homo sapiens, 72 h
[15] = test system: LoVo (Colorectal Adenocarcinoma); assay: Cell viability analysis, colon cancer LoVo; conditions: for viability at 10 µM: Homo sapiens, LoVo, 72 h
cancer cell lines = assay: Cell viability analysis (WST-1) on cancer cell lines; conditions: drug 10 μM, 72 hours, WST-1; Table 3
TOV-21G = assay: Cell viability analysis, ovarian cancer TOV-21G
[16] = test system: 786-O (Renal adenocarcinoma); assay: Cell viability analysis, renal cancer 786-O
[17] = test system: Hep3B (hepatocellular carcinoma); assay: Cell viability analysis, hepatic cancer Hep3B; conditions: Homo sapiens, Hep3B, 72 h, read-out: The results of antibiotic drug inhibiting cancer cell lines (cell viability analysis), Hep3B
[18] = test system: HL-60 (Acute Promyelocytic Leukemia); assay: Cell viability analysis, leukemia HL-60; conditions: Homo sapiens, HL-60, 72 h, read-out: cell viability (survival rate), HL-60, drug 10 μM, 72 hours, WST-1, OD450 nm

With Colistimethate Sodium the “The results of antibiotic drug inhibiting cancer cell lines (cell viability analysis), AsPC-1” value (AsPC-1) was 82.31, the “The results of antibiotic drug inhibiting cancer cell lines (cell viability analysis), MKN-45” value [1] was 104.8 and the “The results of antibiotic drug inhibiting cancer cell lines (cell viability analysis), MCF-7” value [2] was 74.61. The “The results of antibiotic drug inhibiting cancer cell lines (cell viability analysis), AGS” value [3] was 87.05, the “The results of antibiotic drug inhibiting cancer cell lines (cell viability analysis), A549” value [4] was 89.46 and the “The results of antibiotic drug inhibiting cancer cell lines (cell viability analysis), SAS” value [5] was 77.78. The “The results of antibiotic drug inhibiting cancer cell lines (cell viability analysis), HepG2” value [6] was 107.4, the “The results of antibiotic drug inhibiting cancer cell lines (cell viability analysis), A375” value [7] was 94.89 and the “The results of antibiotic drug inhibiting cancer cell lines (cell viability analysis), BxPC-3” value (BxPC-3) was 76.87. The “The results of antibiotic drug inhibiting cancer cell lines (cell viability analysis), T24” value (T24) was 108.3, the “The results of antibiotic drug inhibiting cancer cell lines (cell viability analysis), NIH-OVCAR-3” value (NIH: OVCAR-3) was 103.4 and the “The results of antibiotic drug inhibiting cancer cell lines (cell viability analysis), HeLa” value [8] was 77.79. The “The results of antibiotic drug inhibiting cancer cell lines (cell viability analysis), H1650” value [9] was 82.62, the “The results of antibiotic drug inhibiting cancer cell lines (cell viability analysis), PC-3” value [10] was 101.1 and the “The results of antibiotic drug inhibiting cancer cell lines (cell viability analysis), C-33A” value [11] was 107.5. For the same compound, the “The results of antibiotic drug inhibiting cancer cell lines (cell viability analysis), MDA-MB231” value [12] was 76.75, the “The results of antibiotic drug inhibiting cancer cell lines (cell viability analysis), BCC” value [13] was 77.04 and the “The results of antibiotic drug inhibiting cancer cell lines (cell viability analysis), U2OS” value (U-2OS) was 83.33. The “The results of antibiotic drug inhibiting cancer cell lines (cell viability analysis), TSGH-8301” value [14] was 111.7, the “The results of antibiotic drug inhibiting cancer cell lines (cell viability analysis), LoVo” value [15] was 85.06 and the “inhibition effect on different cancer cell lines” value (cancer cell lines) was “significant inhibition effect”. For the same compound, the “The results of antibiotic drug inhibiting cancer cell lines (cell viability analysis), TOV-21G” value (TOV-21G) was 64.02 and the “The results of antibiotic drug inhibiting cancer cell lines (cell viability analysis), 786-O” value [16] was 86.46.

Compound `O=c1[nH]c(=O)n([C@H]2C[C@H](O)[C@@H](CO)O2)cc1C(F)(F)F` [Trifluridine (Viroptic), Trifluridine] has a viability at 10 µM (AsPC-1; Homo sapiens, ASPC1, 72 h, read-out: The results of antibiotic drug inhibiting cancer cell lines (cell viability analysis), AsPC-1) of 62.1%, a viability at 10 µM ([1]; read-out: The results of antibiotic drug inhibiting cancer cell lines (cell viability analysis), MKN-45, MKN-45, repeated experiment) of 89.5% and a viability at 10 µM ([1]; read-out: cell viability (survival rate), MKN-45, drug 10 μM, 72 hours, WST-1, OD450 nm) of 43.6%. It also gave a viability at 10 µM ([2]; read-out: The results of antibiotic drug inhibiting cancer cell lines (cell viability analysis), MCF-7, MCF-7, repeated experiment) of 79.6%, a viability at 10 µM ([2]; read-out: cell viability (survival rate), MCF7, drug 10 μM, 72 hours, WST-1, OD450 nm) of 36.3% and a viability at 10 µM ([3]; read-out: The results of antibiotic drug inhibiting cancer cell lines (cell viability analysis), AGS, repeated experiment) of 83.2%. The viability at 10 µM ([3]; read-out: cell viability (survival rate), AGS, drug 10 μM, 72 hours, WST-1, OD450 nm) was 64.4%, the viability at 10 µM ([4]; read-out: The results of antibiotic drug inhibiting cancer cell lines (cell viability analysis), A549, A549, repeated experiment) was 61.6% and the viability at 10 µM ([4]; read-out: cell viability (survival rate), A549, drug 10 μM, 72 hours, WST-1, OD450 nm) was 36.5%. It also gave a viability at 10 µM ([5]; Homo sapiens, 72 h, read-out: The results of antibiotic drug inhibiting cancer cell lines (cell viability analysis), SAS) of 33.5%, a viability at 10 µM ([6]; read-out: The results of antibiotic drug inhibiting cancer cell lines (cell viability analysis), HepG2, HepG2, repeated experiment) of 85.6% and a viability at 10 µM ([6]; read-out: cell viability (survival rate), HepG2, drug 10 μM, 72 hours, WST-1, OD450 nm) of 90.2%. It also gave a viability at 10 µM ([7]; read-out: The results of antibiotic drug inhibiting cancer cell lines (cell viability analysis), A375, A375, repeated experiment) of 59.4%, a viability at 10 µM ([7]; read-out: cell viability (survival rate), A375, drug 10 μM, 72 hours, WST-1, OD450 nm) of 48.6% and a viability at 10 µM (BxPC-3; Homo sapiens, BXPC-3, 72 h, read-out: The results of antibiotic drug inhibiting cancer cell lines (cell viability analysis), BxPC-3) of 73.1%. It also gave a viability at 10 µM (T24; Homo sapiens, T-24, 72 h, read-out: The results of antibiotic drug inhibiting cancer cell lines (cell viability analysis), T24) of 55.4%, a viability at 10 µM (NIH: OVCAR-3; Homo sapiens, OVCAR-3, 72 h, read-out: The results of antibiotic drug inhibiting cancer cell lines (cell viability analysis), NIH-OVCAR-3) of 105% and a viability at 10 µM [17] of 77.6%. For the same compound, the viability at 10 µM ([8]; read-out: The results of antibiotic drug inhibiting cancer cell lines (cell viability analysis), HeLa, repeated experiment) was 86.9%, the viability at 10 µM ([8]; read-out: cell viability (survival rate), HeLa, drug 10 μM, 72 hours, WST-1, OD450 nm) was 51.8% and the viability at 10 µM ([9]; read-out: The results of antibiotic drug inhibiting cancer cell lines (cell viability analysis), H1650, H1650, repeated experiment) was 78%. The viability at 10 µM ([9]; read-out: cell viability (survival rate), H1650, drug 10 μM, 72 hours, WST-1, OD450 nm) was 71%, the viability at 10 µM ([11]; Homo sapiens, C-33-A, 72 h, read-out: The results of antibiotic drug inhibiting cancer cell lines (cell viability analysis), C-33A) was 66.5% and the viability at 10 µM ([12]; Homo sapiens, MDA-MB-231, 72 h, read-out: The results of antibiotic drug inhibiting cancer cell lines (cell viability analysis), MDA-MB231) was 75.1%. For the same compound, the viability at 10 µM [18] was 88.9%, the viability at 10 µM ([13]; Homo sapiens, 72 h, read-out: The results of antibiotic drug inhibiting cancer cell lines (cell viability analysis), BCC) was 83.3% and the viability at 10 µM (U-2OS; Homo sapiens, U2OS, 72 h, read-out: The results of antibiotic drug inhibiting cancer cell lines (cell viability analysis), U2OS) was 61.2%. The viability at 10 µM ([14]; read-out: The results of antibiotic drug inhibiting cancer cell lines (cell viability analysis), TSGH-8301, TSGH-8301, repeated experiment) was 86.4%, the viability at 10 µM ([14]; read-out: cell viability (survival rate), TSGH, drug 10 μM, 72 hours, WST-1, OD450 nm) was 51.3% and the viability at 10 µM ([15]; read-out: The results of antibiotic drug inhibiting cancer cell lines (cell viability analysis), LoVo, repeated experiment) was 62.5%. The viability at 10 µM ([15]; read-out: cell viability (survival rate), LoVo, drug 10 μM, 72 hours, WST-1, OD450 nm) was 72.1%, the “inhibition effect on different cancer cell lines” value (cancer cell lines) was “significant inhibition effect” and the viability at 10 µM (TOV-21G; Homo sapiens, TOV21G, 72 h, read-out: The results of antibiotic drug inhibiting cancer cell lines (cell viability analysis), TOV-21G) was 81.4%. It also gave a viability at 10 µM ([16]; Homo sapiens, 786-0, 72 h, read-out: The results of antibiotic drug inhibiting cancer cell lines (cell viability analysis), 786-O) of 37.9%.
